Test results taken from patent US9163044B2, “Carbon monoxide releasing molecules and uses thereof” (Alfama, Inc., priority 2011, dated 2015).

Assays:
[1] = preliminary safety studies in mice; format: in vivo; conditions: doses up to 1 g/kg
[2] = system: lethal APAP liver failure model; assay: lethal APAP liver failure model (500 mg/kg APAP i.p.), survival; conditions: 2×120 mg/kg, 1 h and 3 h or 3 h and 5 h after APAP (500 mg/kg); 4 days
Method: Compound 3b was tested in a lethal APAP liver failure model (see, e.g. Imaeda et al. J Clin Invest (2009) 119:305-14).
Male C57BL/6 mice fasted overnight to increase CyP450 activity. APAP dosed i.p. at 500 mg/kg. Survival monitored over 3 to 5 days.
FIGS. 18A-18B depicts the survival curve of C57BL/6 mice injected (i.p.) with 500 mg/kg of APAP and treated with Compound 3b. Mice were fasted overnight and APAP was administered afterward (n=15). Compound 3b was administered at a dose of 120 mg/kg at 1 h and 3 h (A) or at 3 h and 5 h (B) after APAP administration. Mice survival was monitored for 4 days.
Mice were fasted overnight and APAP was administered afterward (n=15). Compound 3b was administered at a dose of 120 mg/kg (ip) at +3 h or +4 h after APAP administration. Another group of mice received NAC (150 mg/kg, ip) at +1 h after APAP. The remaining two groups are administered in NAC+ Compound 3b combination mode; one group of mice was administered with NAC (150 mg/kg, ip) at +1 h plus Compound 3b (120 mg/kg, ip)+3 h and other with Compound 3b (150 mg/kg, ip) at +1 h plus Compound 3b (120 mg/kg, ip)+4 h. Mice survival was monitored for 4 days.

[3] = system: liver ischemia-reperfusion model; assay: liver ischemia-reperfusion model; format: in vivo, C57BL/6 mice; conditions: 30 mg/kg i.p. 1 h before and 1 h after surgery; ALT 24 h later
Method: Liver ischemia-reperfusion model in C57BL/6 mice. In anesthetized C57BL/6 mice, the hepatic artery and portal vein were clamped for 30 min; 24 h later, serum ALT levels were determined. Compound 3b was dosed i.p. at 30 mg/kg each 1 h before and 1 h after surgery.
FIG. 20 depicts the effect of Compound 3b in the Ischemia-Reperfusion model. In anesthetized C57BL/6 mice, the hepatic artery and portal vein were clamped for 30 min; 24 h later, serum ALT levels were determined. Compound 3b was administered by i.p. injection at 30 mg/kg, 1 hour before and 1 h after surgery.

[4] = carboxyhemoglobin (COHb) levels in treated mice; format: in vivo, CD-1 female mice
Method: FIG. 9 depicts the percentage of carboxyhemoglobin (CO-Hb) measured in CD-1 female mice following Compound 3b administration at 300 mg/kg, intravenously. The CO-Hb was quantified over 80 min by using an oximeter (Avoximeter 4000 from A-vox Instruments). The base line of CO-Hb measured with this instrument is 3-4%.

[5] = system: murine partial hepatectomy model; assay: liver regeneration, murine partial (70%) hepatectomy model; format: in vivo, mice; conditions: 2×100 mg/kg
Method: Liver regeneration in the murine partial hepatectomy model to test for regenerative activity. Model: partial (70%) liver resection in mice and follow rate of regeneration.
FIG. 22 depicts the effect of Compound 3b in a model of liver regeneration. Animals were anesthetized and 70% of the liver was resected, corresponding to the left and median liver lobes. Compound 3b was administered (2×100 mg/kg) 1 h before and 1 h after surgery. Two days later, animals were sacrificed, livers harvested, weighed, and stained for phospho histone H3 (PH3, a specific marker for cell division).

[6] = system: primary hepatocytes from C57BL/6 mice; assay: ex-vivo model of apoptosis (ActD/TNF-α); format: cell-based, mouse; conditions: 2×150 μg/0.5 mL well (2×600 μM), 24 hours
Method: FIGS. 21A-21B depict the effect of Compound 3b in an ex-vivo model of apoptosis. Apoptosis of primary hepatocytes from C57BL/6 mice was induced with Actinomycin D (ActD; 200 ng/mL) and Tumour Necrosis Factor-α (TNF-α; 10 ng/mL). Compound 3b was added to the cultures 1 hour before and 1 hour after the addition of the apoptosis inducers ActD/TNF-α. Compound 3b was tested at concentrations of 25, 50, 100 and 150 μg/0.5 mL well. Hepatocytes survival was determined 24 hours after the addition of the apoptosis inducers. FIG. 21A: Percentage of increase in survival ActD/TNF-α treated cells in the presence of Compound 3b, relative to cells treated with only the apoptosis inducers. FIG. 21B: Toxicity of the Compound 3b doses on murine hepatocytes (not treated with apoptosis inducers). Data are the mean±S.D. of 3-5 independent experiments (3-5 livers from different mice).

[7] = storage stability of the solid; format: physicochemical; conditions: brown vials, ambient temperature, under N2
Text: Following the procedure described by Beck and coworkers (Achatz et al., Anorg. Allg. Chem (2005) 631:2339-2346) saponification of compound (3-a) or (3-c) with NaOH followed by protonation with an acid (e.g., HCl or H2SO4) in aqueous solution led to the formation of tricarbonyl[tris(2-isocyano-2-methyl-propionic acid)]Mo(0) (3-b). Compound (3-b) is stable when stored in brown vials at ambient temperature under N2 for over 6 months or more.

[8] = CO released from Compound 3b in phosphate buffer pH 7.4 alone or with human or rat microsomes (FIG. 8); format: in vitro ADME; conditions: 37° C.
Method: The vials were closed and after mixing, the samples were warmed to 37° C. for 5 minutes before an aliquot (25 μL, 0.5 mg protein content) of rat liver microsomes (BD, Cat. No. 452511) or human liver microsomes (BD, Cat. No. 452161) was added to each vial. In parallel analogous vials with all the reagents except the microsomes were prepared. Due to the light-sensitivity of the molybdenum compounds, the reactions were performed in the dark. The samples were incubated at 37° C. and gas samples of the headspace (from 100 μL to 500 μL) of the vials were removed with a gas-tight syringe after 5, 10, 15, 30, and 60 minutes (in some cases samples were also taken at 1, 2, 3 or 4 minutes) upon microsomes addition. The gas samples were then injected into empty sealed vials (8 mL volume) and the amount of CO present in the vials was measured using GC-RCP.
FIG. 8 depicts the amount of CO released from Compound 3b, expressed in equivalents of CO, in phosphate buffer pH 7.4 (“buffer”), phosphate buffer pH 7.4 in the presence of human microsomes (“human”) or rat microsomes (“rat”). The assay was performed in closed vials during 1 hour at 37° C. A gas aliquot was removed from the air space of the vials and CO concentration was determined by GC-RCP at different time points.

[C-]#[N+]C(C)(C)C(=O)O.[C-]#[N+]C(C)(C)C(=O)O.[C-]#[N+]C(C)(C)C(=O)O.[C-]#[O+].[C-]#[O+].[C-]#[O+].[Mo] [Compound 3b, tricarbonyl[tris(2-isocyano-2-methyl-propionic acid)]Mo(0)]
toxicity in preliminary safety studies [1]: no toxicity | survival [2]: 100% | serum ALT [3]: 29 U/L | COHb in blood ([4]; 300 mg/kg i.v., over 80 min, base line 3-4%): ≤ 7.5% | symptomatic levels of COHb in blood ([4]; therapeutic doses, mice): did not cause symptomatic levels of COHb | liver weight increase 48 h after resection ([5]; 1 h before and 1 h after surgery, control 89%): 102% | PH3 staining (cell division), in words ([5]; two days after resection): increases PH3 staining | increase in survival of ActD/TNF-α treated hepatocytes relative to inducers only [6]: more than 125% | stable when stored [7]: over 6 months | factor by which microsomes accelerate CO release ([8]; human or rat microsomes versus buffer, 1 hour): 4.0-5.5 | CO released in pH 7.4 buffer in 1 hour ([8]; phosphate buffer pH 7.4, no microsomes): 0.25 mol equiv. of CO
